Data on four compounds can be found in patent US20150258072A1, “Antibacterial compositions” (WOCKHARDT LIMITED, priority 2012, published 2015).

Each structure is given as a SMILES string.

The first assay deals with K. pneumoniae B 43 strain producing SHV and TEM ESBLs. The assay is described as follows: Cidal activity (bacterial count over time). The format is cell-based. As to conditions: Table 3; 2 hours; initial count 7.04 log CFU/ml; concentrations in label.
`O=C(O)[C@H]1/C(=C/CO)O[C@@H]2CC(=O)N21` [Clavulanic acid, clavulanic acid] showed a Bacterial count of 8.1 Log CFU/ml.

The same assay, now with this note: Table 3; 6 hours; initial count 7.04 log CFU/ml; concentrations in label.
In turn, `O=C(O)[C@H]1/C(=C/CO)O[C@@H]2CC(=O)N21` [Clavulanic acid, clavulanic acid] gave a Bacterial count of 8.7 Log CFU/ml.

Staying with this assay, now noted: Table 3; 8 hours; initial count 7.04 log CFU/ml; concentrations in label.
`O=C(O)[C@H]1/C(=C/CO)O[C@@H]2CC(=O)N21` [Clavulanic acid, clavulanic acid] showed a Bacterial count of 9 Log CFU/ml.

Staying with this assay, now noted: Table 5; 2 hours; initial count log 7.43 CFU/ml; concentrations in label.
Regarding `C=CC1=C(C(=O)O)N2C(=O)[C@@H](NC(=O)/C(=N\OCC(=O)O)c3csc(N)n3)[C@H]2SC1` [Cefixime (2 mcg/ml), cefixime], the Bacterial count is reported as 8.16 Log CFU/ml.
On the same count and under the same terms, in the case of `O=C(O)[C@H]1/C(=C/CO)O[C@@H]2CC(=O)N21` [Clavulanic acid, clavulanic acid] it was 8.1 Log CFU/ml.

The assay is the same for the next values; noted with them: Table 5; 4 hours; initial count log 7.43 CFU/ml; concentrations in label.
`C=CC1=C(C(=O)O)N2C(=O)[C@@H](NC(=O)/C(=N\OCC(=O)O)c3csc(N)n3)[C@H]2SC1` [Cefixime (2 mcg/ml), cefixime] came in with a Bacterial count of 8.47 Log CFU/ml.
The same measure, in the same setting: in the case of `O=C(O)[C@H]1/C(=C/CO)O[C@@H]2CC(=O)N21` [Clavulanic acid, clavulanic acid] it was 8.56 Log CFU/ml.

Staying with this assay, now noted: Table 5; 8 hours; initial count log 7.43 CFU/ml; concentrations in label.
On to `C=CC1=C(C(=O)O)N2C(=O)[C@@H](NC(=O)/C(=N\OCC(=O)O)c3csc(N)n3)[C@H]2SC1` [Cefixime (2 mcg/ml), cefixime], for which the Bacterial count turned out to be 8.84 Log CFU/ml.
The same measure, in the same setting: with `O=C(O)[C@H]1/C(=C/CO)O[C@@H]2CC(=O)N21` [Clavulanic acid, clavulanic acid] the figure was 8.85 Log CFU/ml.

A further assay has as its system K. pneumoniae ATCC 700603 strain producing SHV 18 ESBL. The assay is described as follows: MIC by agar dilution (CLSI). The conditions noted are these: Klebsiella pneumoniae, ATCC700603, read-out: MIC value when used alone. The format is cell-based. How it is done: The efficacy of compositions and methods in treating or controlling bacterial infections was studied. In a typical study, overnight grown bacterial cultures were diluted appropriately and inoculated on the agar media containing doubling dilutions of the antibiotic. Observation for growth or no growth was performed after 16-20 hours of incubation at 35±2° C. in ambient air. The overall procedure was performed as per Clinical and Laboratory Standards Institute (CLSI) recommendations (Clinical and Laboratory Standards Institute (CLSI), performance Standards for Antimicrobial Susceptibility Testing, 20th Informational Supplement, M 100-S20, Volume 30, No. 1, 2010).
For orientation: Agar dilution tests growth on a series of plates holding different concentrations.
For `O=C(O)[C@H]1/C(=C/CO)O[C@@H]2CC(=O)N21` [Clavulanic acid, clavulanic acid], the MIC (commonly the smallest concentration in the dilution series that meets the test's criterion for growth inhibition) is more than 64 µg/mL.

For a further assay the test system is unchanged. The assay is described as follows: Cidal activity (bacterial count over time). The format is cell-based. The conditions noted are these: Table 2; 2 hours; initial count 6.65 log CFU/ml; concentrations in label.
In the case of `O=C(O)[C@H]1/C(=C/CO)O[C@@H]2CC(=O)N21` [Clavulanic acid, clavulanic acid], the Bacterial count is reported as 8.1 Log CFU/ml.

Still in this assay, the particulars now being: Table 2; 6 hours; initial count 6.65 log CFU/ml; concentrations in label.
`O=C(O)[C@H]1/C(=C/CO)O[C@@H]2CC(=O)N21` [Clavulanic acid, clavulanic acid]: the Bacterial count worked out at 8.8 Log CFU/ml.

Still in this assay, the particulars now being: Table 2; 8 hours; initial count 6.65 log CFU/ml; concentrations in label.
Take `O=C(O)[C@H]1/C(=C/CO)O[C@@H]2CC(=O)N21` [Clavulanic acid, clavulanic acid]: the Bacterial count stood at 9 Log CFU/ml.

The same assay, now with this note: Table 4; 2 hours; initial count 7.43 log CFU/ml; concentrations in label.
Compound `C=CC1=C(C(=O)O)N2C(=O)[C@@H](NC(=O)/C(=N\OCC(=O)O)c3csc(N)n3)[C@H]2SC1` [Cefixime (2 mcg/ml), cefixime] returned a Bacterial count of 8.11 Log CFU/ml.
Regarding `O=C(O)[C@H]1/C(=C/CO)O[C@@H]2CC(=O)N21` [Clavulanic acid, clavulanic acid], the Bacterial count stood at 8.4 Log CFU/ml.

Still in this assay, the particulars now being: Table 4; 4 hours; initial count 7.43 log CFU/ml; concentrations in label.
`C=CC1=C(C(=O)O)N2C(=O)[C@@H](NC(=O)/C(=N\OCC(=O)O)c3csc(N)n3)[C@H]2SC1` [Cefixime (2 mcg/ml), cefixime]: the Bacterial count is 8.30 Log CFU/ml.
Still for that read-out and setting: in the case of `O=C(O)[C@H]1/C(=C/CO)O[C@@H]2CC(=O)N21` [Clavulanic acid, clavulanic acid] it was 8.65 Log CFU/ml.

Staying with this assay, now noted: Table 4; 8 hours; initial count 7.43 log CFU/ml; concentrations in label.
Consider `C=CC1=C(C(=O)O)N2C(=O)[C@@H](NC(=O)/C(=N\OCC(=O)O)c3csc(N)n3)[C@H]2SC1` [Cefixime (2 mcg/ml), cefixime], for which the Bacterial count is listed as 9 Log CFU/ml.
Regarding `O=C(O)[C@H]1/C(=C/CO)O[C@@H]2CC(=O)N21` [Clavulanic acid, clavulanic acid], the Bacterial count is reported as 8.9 Log CFU/ml.

Staying with this assay, now noted: Table 6; 2 hours; initial count 7.27 log CFU/ml; concentrations in label.
With `COCC1=C(C(=O)O)N2C(=O)[C@@H](NC(=O)/C(=N\OC)c3csc(N)n3)[C@H]2SC1` [Cefpodoxime (2 mcg/ml), cefpodoxime], the Bacterial count was 8.54 Log CFU/ml.
Still for that read-out and setting: in the case of `O=C(O)[C@H]1/C(=C/CO)O[C@@H]2CC(=O)N21` [Clavulanic acid, clavulanic acid] it was 8.47 Log CFU/ml.

Staying with this assay, now noted: Table 6; 4 hours; initial count 7.27 log CFU/ml; concentrations in label.
`COCC1=C(C(=O)O)N2C(=O)[C@@H](NC(=O)/C(=N\OC)c3csc(N)n3)[C@H]2SC1` [Cefpodoxime (2 mcg/ml), cefpodoxime] yielded a Bacterial count of 9 Log CFU/ml.
Consider `O=C(O)[C@H]1/C(=C/CO)O[C@@H]2CC(=O)N21` [Clavulanic acid, clavulanic acid], for which the Bacterial count was 9.09 Log CFU/ml.

Still in this assay, the particulars now being: Table 6; 8 hours; initial count 7.27 log CFU/ml; concentrations in label.
Consider `COCC1=C(C(=O)O)N2C(=O)[C@@H](NC(=O)/C(=N\OC)c3csc(N)n3)[C@H]2SC1` [Cefpodoxime (2 mcg/ml), cefpodoxime], for which the Bacterial count was found to be 9 Log CFU/ml.
Same read-out and setting: with `O=C(O)[C@H]1/C(=C/CO)O[C@@H]2CC(=O)N21` [Clavulanic acid, clavulanic acid] the figure was 9.09 Log CFU/ml.

The same assay, now with this note: Table 7; 2 hours; initial count 7.27 log CFU/ml; concentrations in label.
Compound `CO/N=C(\C(=O)N[C@@H]1C(=O)N2C(C(=O)O)=C(COC(N)=O)CS[C@H]12)c1ccco1` [Cefuroxime (2 mcg/ml), cefuroxime] gave a Bacterial count of 8.77 Log CFU/ml.
The compound `O=C(O)[C@H]1/C(=C/CO)O[C@@H]2CC(=O)N21` [Clavulanic acid, clavulanic acid] displayed a Bacterial count of 8.47 Log CFU/ml.

The assay is the same for the next values; noted with them: Table 7; 4 hours; initial count 7.27 log CFU/ml; concentrations in label.
Take `CO/N=C(\C(=O)N[C@@H]1C(=O)N2C(C(=O)O)=C(COC(N)=O)CS[C@H]12)c1ccco1` [Cefuroxime (2 mcg/ml), cefuroxime]: the Bacterial count was 8.90 Log CFU/ml.
On the same count and under the same terms, in the case of `O=C(O)[C@H]1/C(=C/CO)O[C@@H]2CC(=O)N21` [Clavulanic acid, clavulanic acid] it was 9.09 Log CFU/ml.

Still in this assay, the particulars now being: Table 7; 8 hours; initial count 7.27 log CFU/ml; concentrations in label.
`CO/N=C(\C(=O)N[C@@H]1C(=O)N2C(C(=O)O)=C(COC(N)=O)CS[C@H]12)c1ccco1` [Cefuroxime (2 mcg/ml), cefuroxime] returned a Bacterial count of 9 Log CFU/ml.
Regarding `O=C(O)[C@H]1/C(=C/CO)O[C@@H]2CC(=O)N21` [Clavulanic acid, clavulanic acid], the Bacterial count turned out to be 9.09 Log CFU/ml.

Still in this assay, the particulars now being: drug alone; Table 2.
Regarding `O=C(O)[C@H]1/C(=C/CO)O[C@@H]2CC(=O)N21` [Clavulanic acid, clavulanic acid], the “antibacterial activity (growth in presence of drug alone)” value is “no antibacterial activity”.
